Test results as given in PMC6151383 (Molecules : A Journal of Synthetic Chemistry and Natural …, 2017).
≈ marks a conversion by molar mass, not a printed value. Read-outs that look alike come from different tables or passages of the source.

Columns and labels:
[1] = test system: Trichophyton interdigitale 445; assay: Antifungal microdilution broth MIC, T. interdigitale; type: cell-based
[2] = test system: Aspergillus fumigatus 231; assay: Antifungal microdilution broth MIC, A. fumigatus; type: cell-based
[3] = test system: ESBL-positive Klebsiella pneumoniae J 14368/08
[4] = test system: Klebsiella pneumoniae D 11750/08
[5] = test system: Mycobacterium kansasii 235/80; assay: In vitro antimycobacterial MIC, M. kansasii 235/80; type: cell-based
Trichosporon asahii 1188 = assay: Antifungal microdilution broth MIC, T. asahii; type: cell-based
[6] = test system: yeasts (Candida sp., T. asahii); assay: Antifungal activity against yeasts; type: cell-based; conditions: read-out: MIC for yeasts
Candida glabrata 20/I = assay: Antifungal microdilution broth MIC, C. glabrata; type: cell-based; conditions: Nakaseomyces glabratus, 48 h incubation, read-out: MIC CG 48 h
[7] = test system: Mycobacterium avium 330/88; assay: In vitro antimycobacterial MIC, M. avium; type: cell-based
[8] = test system: Escherichia coli CCM 4517; assay: Antibacterial microdilution broth MIC, E. coli; type: cell-based; conditions: Escherichia coli, CCM4517; 48 h incubation; read-out: MIC EC 48 h
[9] = test system: Staphylococcus epidermidis H 6966/08; assay: Antibacterial microdilution broth MIC, S. epidermidis; type: cell-based; conditions: Staphylococcus epidermidis, H6966/08
[10] = test system: Mycobacterium tuberculosis 331/88 (H37Rv); assay: In vitro antimycobacterial MIC, M. tuberculosis; type: cell-based
M. kansasii 6509/96 = assay: In vitro antimycobacterial MIC, M. kansasii clinical isolate; type: cell-based; conditions: Mycobacterium kansasii
Candida tropicalis 156 = assay: Antifungal microdilution broth MIC, C. tropicalis; type: cell-based
Candida krusei E28 = assay: Antifungal microdilution broth MIC, C. krusei; type: cell-based; conditions: Pichia kudriavzevii
[11] = test system: Lichtheimia corymbifera 272; assay: Antifungal microdilution broth MIC, L. corymbifera; type: cell-based; conditions: Lichtheimia corymbifera, 272; 48 h incubation; read-out: MIC LC 48 h
[12] = test system: Staphylococcus aureus CCM 4516/08; assay: Antibacterial microdilution broth MIC, S. aureus; type: cell-based; conditions: Staphylococcus aureus
[13] = test system: Candida albicans ATCC 44859; assay: Antifungal microdilution broth MIC, C. albicans; type: cell-based
[14] = test system: Pseudomonas aeruginosa CCM 1961; assay: Antibacterial microdilution broth MIC, P. aeruginosa; type: cell-based; conditions: Pseudomonas aeruginosa, CCM1961; 48 h incubation; read-out: MIC PA 48 h
[15] = test system: Enterococcus faecalis J 14365/08; assay: Antibacterial microdilution broth MIC, E. faecalis; type: cell-based; conditions: Enterococcus faecalis, J14365/08; 48 h incubation; read-out: MIC EF 48 h
Candida sp. = assay: Selectivity index for Candida sp. (IC50 HepG2/MIC); type: cell-based; conditions: all Candida species
[16] = Trichophyton interdigitale, 445, 72 h incubation, read-out: MIC TI 72 h
[17] = Trichophyton interdigitale, 445, 120 h incubation, read-out: MIC TI 120 h
[18] = 235/80, 168 h, 7 d incubation, read-out: MIC M. kansasii 235/80 7 d
[19] = 235/80, 336 h, 14 d incubation, read-out: MIC M. kansasii 235/80 14 d
[20] = 235/80, 504 h, 21 d incubation, read-out: MIC M. kansasii 235/80 21 d
[21] = Trichosporon asahii, 1188, 48 h incubation, read-out: MIC TA 48 h
[22] = 330/88, 336 h, 14 d incubation, read-out: MIC M. avium 330/88 14 d
[23] = 330/88, 504 h, 21 d incubation, read-out: MIC M. avium 330/88 21 d
[24] = 48 h incubation, read-out: MIC SE 48 h
[25] = 336 h, 14 d incubation, read-out: MIC Mtb. 331/88 14 d
[26] = 504 h, 21 d incubation, read-out: MIC Mtb. 331/88 21 d
[27] = 6509/96, 168 h, 7 d incubation, read-out: MIC M. kansasii 6509/96 7 d
[28] = 6509/96, 336 h, 14 d incubation, read-out: MIC M. kansasii 6509/96 14 d
[29] = 6509/96, 504 h, 21 d incubation, read-out: MIC M. kansasii 6509/96 21 d
[30] = Candida tropicalis, 156, 48 h incubation, read-out: MIC CT 48 h
[31] = E28, 48 h incubation, read-out: MIC CK 48 h
[32] = CCM4516, 48 h incubation, read-out: MIC SA 48 h
[33] = ATCC44859, 48 h incubation, read-out: MIC CA 48 h
[34] = Aspergillus fumigatus, 231, 48 h incubation, read-out: MIC AF 48 h

Structure (SMILES)	MIC KP-E 24 h [3] [µM]	MIC KP-E 48 h [3] [µM]	MIC KP 24 h [4] [µM]	MIC KP 48 h [4] [µM]	MIC [5, 18] [µM]	MIC [5, 19] [µM]	MIC [5, 20] [µM]	MIC (Candida glabrata 20/I) [µM]	MIC [7, 22] [µM]	MIC [7, 23] [µM]	MIC [8] [µM]	MIC [9, 24] [µM]	MIC [10, 25] [µM]	MIC [10, 26] [µM]	MIC (M. kansasii 6509/96; [27]) [µM]	MIC (M. kansasii 6509/96; [28]) [µM]	MIC (M. kansasii 6509/96; [29]) [µM]	MIC [11] [µM]	MIC [14] [µM]	MIC [15] [µM]	other results
O=S(=O)(Nc1ncccn1)c1ccc(N=Cc2cc(O)ccc2O)cc1 [Compound 2i, 4-[(2,5-Dihydroxybenzylidene)amino]-N-(pyrimidin-2-yl)benzenesulfonamide]	>500	>500	>500	>500	62.5 (≈ 23.1 µg/mL)	125 (≈ 46.3 µg/mL)	125 (≈ 46.3 µg/mL)	15.6 (≈ 5.79 µg/mL)	500 (≈ 185 µg/mL)	1000 (≈ 370 µg/mL)	500 (≈ 185 µg/mL)	15.6 (≈ 5.79 µg/mL)	125 (≈ 46.3 µg/mL)	125 (≈ 46.3 µg/mL)	62.5 (≈ 23.1 µg/mL)	125 (≈ 46.3 µg/mL)	125 (≈ 46.3 µg/mL)	500 (≈ 185 µg/mL)	500 (≈ 185 µg/mL)	250 (≈ 92.6 µg/mL)	MIC [1, 16]: 1.95 µM (≈ 0.722 µg/mL); MIC [1, 17]: 1.95 µM (≈ 0.722 µg/mL); MIC ([2]; Aspergillus fumigatus, 231, 24 h, read-out: MIC AF 24 h): 125 µM (≈ 46.3 µg/mL); MIC ([2]; Aspergillus fumigatus, 231, 48 h, read-out: MIC AF 48 h): 125 µM (≈ 46.3 µg/mL); MIC (Trichosporon asahii 1188; [21]): 15.6 µM (≈ 5.79 µg/mL); MIC ([6]; range over Candida sp. and T. asahii): 15.6 to 31.2 µM (≈ 5.79 to 11.6 µg/mL); MIC ([9]; incubation time not given, read-out: MIC for S. epidermidis): 15.6 µM (≈ 5.79 µg/mL); MIC (Candida tropicalis 156; [30]): 15.6 µM (≈ 5.79 µg/mL); MIC (Candida krusei E28; [31]): 31.2 µM (≈ 11.6 µg/mL); MIC ([12]; CCM 4516 / MRSA, S. aureus incl. MRSA, incubation time not given, read-out: MIC for S. aureus): 31.2 µM (≈ 11.6 µg/mL); MIC [12, 32]: 31.2 µM (≈ 11.6 µg/mL); MIC [13, 33]: 15.6 µM (≈ 5.79 µg/mL)
O=S(=O)(Nc1ncccn1)c1ccc(N=Cc2c(O)cccc2Cl)cc1 [Compound 2k, 4-[(2-Chloro-6-hydroxybenzylidene)amino]-N-(pyrimidin-2-yl)benzenesulfonamide]	>250	>250	>250	>250	62.5 (≈ 24.3 µg/mL)	125 (≈ 48.6 µg/mL)	250 (≈ 97.2 µg/mL)	> 250	250 (≈ 97.2 µg/mL)	250 (≈ 97.2 µg/mL)	> 250	> 250	125 (≈ 48.6 µg/mL)	125 (≈ 48.6 µg/mL)	62.5 (≈ 24.3 µg/mL)	125 (≈ 48.6 µg/mL)	125 (≈ 48.6 µg/mL)	> 250	> 250	> 250	SI for TI ([1]; SI = IC50 (HepG2)/MIC, Trichophyton interdigitale): inactive; MIC [1, 16]: > 250 µM; MIC [1, 17]: > 250 µM; MIC [2, 34]: > 250 µM; SI for Candida sp. (Candida sp.): inactive; MIC (Trichosporon asahii 1188; [21]): > 250 µM; MIC (Candida tropicalis 156; [30]): > 250 µM; MIC (Candida krusei E28; [31]): > 250 µM; MIC [12, 32]: > 250 µM; MIC [13, 33]: > 250 µM
O=S(=O)(Nc1ncccn1)c1ccc(N=Cc2cc(Cl)cc(Cl)c2O)cc1 [Compound 2m, 4-[(3,5-Dichloro-2-hydroxybenzylidene)amino]-N-(pyrimidin-2-yl)benzenesulfonamide]	500 (≈ 212 µg/mL)	500 (≈ 212 µg/mL)	>500	>500	125 (≈ 52.9 µg/mL)	250 (≈ 106 µg/mL)	500 (≈ 212 µg/mL)	31.2 (≈ 13.2 µg/mL)	250 (≈ 106 µg/mL)	500 (≈ 212 µg/mL)	> 500	31.2 (≈ 13.2 µg/mL)	125 (≈ 52.9 µg/mL)	125 (≈ 52.9 µg/mL)	62.5 (≈ 26.5 µg/mL)	125 (≈ 52.9 µg/mL)	250 (≈ 106 µg/mL)	500 (≈ 212 µg/mL)	> 500	> 500	MIC ([1]; Trichophyton interdigitale, 445, 72 h, read-out: MIC TI 72 h): 125 µM (≈ 52.9 µg/mL); MIC ([1]; Trichophyton interdigitale, 445, 120 h, read-out: MIC TI 120 h): 125 µM (≈ 52.9 µg/mL); MIC [2, 34]: 250 µM (≈ 106 µg/mL); MIC (Trichosporon asahii 1188; Trichosporon asahii, 1188, 24 h, read-out: MIC TA 24 h): 62.5 µM (≈ 26.5 µg/mL); MIC (Trichosporon asahii 1188; Trichosporon asahii, 1188, 48 h, read-out: MIC TA 48 h): 62.5 µM (≈ 26.5 µg/mL); MIC [6]: 31.2 to 125 µM (≈ 13.2 to 52.9 µg/mL); MIC (Candida tropicalis 156; Candida tropicalis, 156, 24 h, read-out: MIC CT 24 h): 125 µM (≈ 52.9 µg/mL); MIC (Candida tropicalis 156; Candida tropicalis, 156, 48 h, read-out: MIC CT 48 h): 125 µM (≈ 52.9 µg/mL); MIC (Candida krusei E28; E28, 24 h, read-out: MIC CK 24 h): 62.5 µM (≈ 26.5 µg/mL); MIC (Candida krusei E28; E28, 48 h, read-out: MIC CK 48 h): 62.5 µM (≈ 26.5 µg/mL); MIC ([12]; CCM4516, 24 h, read-out: MIC SA 24 h): 62.5 µM (≈ 26.5 µg/mL); MIC ([12]; CCM4516, 48 h, read-out: MIC SA 48 h): 62.5 µM (≈ 26.5 µg/mL); MIC ([13]; ATCC44859, 24 h, read-out: MIC CA 24 h): 62.5 µM (≈ 26.5 µg/mL); MIC ([13]; ATCC44859, 48 h, read-out: MIC CA 48 h): 62.5 µM (≈ 26.5 µg/mL)
